Assay results published in patent US20180332847A1, “ANTIMICROBIAL METAL CARBOXYLATE-BENZISOTHIAZOLINONE MIXTURES” (Troy Corporation, priority 2017, published 2018).
Like-named read-outs stand apart in the source and are kept apart here.

Tests used:
[1] = ingredient added at 1 mass % based on total mass of paint
Experimental: Zinc chloride, zinc formate and zinc acetate were added to the acrylic paint formulation.

[2] = system: Alternaria alternata; assay: Minimum Inhibitory Concentration (MIC) by spiral plater / spiral gradient endpoint against Alternaria alternata; type: cell-based
Experimental: (§1) Synergistic Index=Qa/QA+Qb/QB [Equation No. 1] • where Qa=the quantity of component A used in a binary mixture that gives the desired effect • QA=the quantity of component A which when used alone gives the desired effect • Qb=the quantity of component B used in a binary mixture that gives the desired effect • QB=the quantity of component B which when used alone gives the desired effect
(§2) Minimum Inhibitory Concentration (“MIC”) for each of the antimicrobial compositions was determined against a test microbe, which in this case was a spore suspension of the fungus Alternaria alternata, with the aid of an Autoplate 4000 spiral plater that is commercially available from Spiral Biotech, Inc., Norwood, Mass., and its accompanying spiral gradient endpoint software (hereinafter referred to as “the SGE software”). The spiral plater automates the normal serial dilution method for determining MICs. Although the details of the SGE software are held confidentially by Spiral Biotech, Inc., they are believed to consistent with the principles set forth in “Measurement of MICs of antibacterial agents by spiral gradient endpoint compared with conventional dilution method” J. H. Paton, H. A. Holt, and M. J. Bywater—Int. J. Exp. Clin. Chemother, 1990.
Spore suspensions for the test microbe were prepared by growing Alternaria alternata on a Difco malt agar slant in an incubator for 1 week at 28° C. Spores were loosened by adding a small amount of buffer solution at pH 7.0 and scraping with a sterile nichrome wire loop. This process was repeated twice. The buffer solution included phosphate buffer and magnesium chloride, and was obtained commercially from Thomas Scientific Company, as Lot #023-0703.
Loosened spores were removed from the slant by aseptically pouring them into a sterile bottle containing 30 ml of the buffer solution and a volume of approximately 40 ml of 6 mm diameter borosilicate glass beads. The bead bottle was shaken to disperse the spores and adjusted to a final liquid volume of 50 ml. For use as a test inoculum, spore density was adjusted in distilled water blanks to that of a 0.5 McFarland nephelometer standard.
(§3) The spiral plater automatically applied 54.3 micro-liters of each antimicrobial composition of interest to the surface of 150 millimeter malt agar plates using an exponential application gradient. The concentration of the antimicrobial concentration was greatest near the center of the Petri plates and decreased toward the edges. Antimicrobial composition gradients were allowed to air dry at room temperature for 1 to 4 hours at 23° C. before inoculation with test microbe. Spiral gradient plates were inoculated by streaking with cotton swabs that had been soaked in test microbe spore suspension. Streaks were applied in a radial pattern, using a paper template generated by the SGE software to guide the application. Eight radii were inoculated per Petri plate. Each radius is considered as one replicated observation.
(§4) Inoculated spiral gradient plates were incubated for 48 hours in an incubator at 28° C. Visible growth of the test microbe developed along the radial streaks and ended where the concentration of the antimicrobial composition was sufficient to prevent growth. This growth endpoint value (expressed in mm as measured from center point of the Petri plate) was used to calculate MIC for the mixture, expressed as parts per million.
Utilizing the procedure described above in Example 1, Minimum Inhibitory Concentration (“MIC”) for each of the antimicrobial compositions was determined against a test microbe, which in this case was a spore suspension of the […] Alternaria alternata.

[3] = system: Klebsiella pneumoniae; assay: Minimum Inhibitory Concentration (MIC) by spiral plater / spiral gradient endpoint against Klebsiella pneumoniae; type: cell-based; settings: quantity of calcium ethylhexanoate used alone that gives the desired effect
Experimental: as §1
(§5) Minimum Inhibitory Concentration (“MIC”) for each of the antimicrobial compositions was determined against a test microbe, which in this case was a spore suspension of the fungus Alternaria alternata, with the aid of an Autoplate 4000 spiral plater that is commercially available from Spiral Biotech, Inc., Norwood, Mass., and its accompanying spiral gradient endpoint software (hereinafter referred to as “the SGE software”). […]
(§6) Inoculated spiral gradient plates were incubated for 48 hours in an incubator at 28° C. […] This growth endpoint value (expressed in mm as measured from center point of the Petri plate) was used to calculate MIC for the mixture, expressed as parts per million.
Utilizing the procedure described above in Example 1, Minimum Inhibitory Concentration (“MIC”) for each of the antimicrobial compositions was determined against a test microbe, which in this case was a spore suspension of the bacteria Klebsiella pneumoniae. […]

[4] = system: Saccharomyces cervisiae; assay: Minimum Inhibitory Concentration (MIC) by spiral plater / spiral gradient endpoint against Saccharomyces cervisiae; type: cell-based; settings: aqueous calcium gluconate-BIT compositions; MassCG:MassBIT: Trials 1,2 0:1; 3 1:3; 4,5 1:1; 6 3:1; 7,8 1:0
Experimental: as §1, §5, §6
Utilizing the procedure described above in Example 1, Minimum Inhibitory Concentration (“MIC”) for each of the antimicrobial compositions was determined against a test microbe, which in this case was a spore suspension of the yeast Saccharomyces cervisiae. […]

[5] = system: Pseudomonas aeruginosa; assay: Minimum Inhibitory Concentration (MIC) by spiral plater / spiral gradient endpoint against Pseudomonas aeruginosa; type: cell-based; settings: 3 1:3, 4,5 1:1, 6 3:1, 7,8 1:0
Experimental: as §1, §2, §3, §4
Utilizing the procedure described above in Example 1, Minimum Inhibitory Concentration (“MIC”) for each of the antimicrobial compositions was determined against a test microbe, which in this case was a spore suspension of the bacterium Pseudomonas aeruginosa. Several antimicrobial compositions containing calcium gluconate, BIT, or both in water were investigated, as shown below in Table 7.
Utilizing the procedure described above in Example 1, Minimum Inhibitory Concentration (“MIC”) for each of the antimicrobial compositions was determined against a test microbe, which in this case was a […] Pseudomonas aeruginosa. Several antimicrobial compositions containing calcium glycerate, BIT, or both in water were investigated, as shown below in Table 13.
Utilizing the procedure described above in Example 1, Minimum Inhibitory Concentration (“MIC”) of certain antimicrobial compositions was determined against a test microbe, which in this case was a spore suspension of the bacterium Pseudomonas aeruginosa. Several antimicrobial compositions containing zinc gluconate, BIT, or both in water were investigated, as shown below in Table 19.

[6] = system: Candida albicans; assay: Minimum Inhibitory Concentration (MIC) by spiral plater / spiral gradient endpoint against Candida albicans; type: cell-based; settings: for MIC (ppm) for Candida albicans: 3 1:3, 4,5 1:1, 6 3:1, 7,8 1:0; for QA: used for SI
Experimental: as §1, §2, §3, §4
Utilizing the procedure described above in Example, Minimum Inhibitory Concentration (“MIC”) for each of the antimicrobial compositions was determined against a test microbe, which in this case was a spore suspension of the yeast Candida albicans., as described above in Example 1. Several antimicrobial compositions containing calcium gluconate, BIT, or both in water were investigated, as shown below in Table 3
Utilizing the procedure described above in Example 1, Minimum Inhibitory Concentration (“MIC”) for each of the antimicrobial compositions was determined against a test microbe, which in this case was a spore suspension of the yeast Candida albicans. Several antimicrobial compositions containing calcium glycerate, BIT, or both in water were investigated, as shown below in Table 11.
Utilizing the procedure described above in Example 1, Minimum Inhibitory Concentration (“MIC”) for antimicrobial compositions was determined against a test microbe, which in this case was a spore suspension of the yeast Candida albicans. Several antimicrobial compositions containing calcium glycerate, BIT, or both in water were investigated, as shown below in Table 23.
Utilizing the procedure described above in Example 1, Minimum Inhibitory Concentration (“MIC”) for each of the antimicrobial compositions was determined against a test microbe, which in this case was a spore suspension of the fungus Candida Albicans.

[7] = system: mixed bacterial inoculum: Pseudomonas aeruginosa (ATCC #10145), Escherichia coli (ATCC #11229), Enterobacter aerogenes (ATCC #13048), Alcaligenes faecalis …; assay: Two-part bacterial challenge of acrylic latex paint samples with a mixed inoculum (performance ratings); type: cell-based; parameters: key to Performance Ratings Week 1, 1 Day / Performance Ratings Week 1, 2 Days / Performance Ratings Week 1, 8 Days / Performance Ratings Week 2, 1 Day / Performance Ratings Week 2, 2 Days / Performance Ratings Week 2, 8 Days: 0: No bacterial growth; 1: Trace of bacterial growth; 2: Light bacterial growth; 3: Moderate bacterial growth; 4: Heavy bacterial growth
Experimental: In order to quantify the antibacterial effectiveness of an antimicrobial composition of interest, samples were prepared by adding various amounts of the antimicrobial composition to identical volumes of a paint that contained no preservatives and was not contaminated by bacteria. In this case, the test sample was a white, aqueous-based, acrylic latex paint. The paint included an acrylic resin, and conventional additives such as surfactant, thickener, defoamer, and titanium oxide.
The samples of the paint were subjected to a two-part challenge procedure and the sample that provided acceptable anti-bacterial protection with the lowest concentration of the antimicrobial composition was identified. Each part of the anti-bacterial challenge consisted of a 7-day test cycle. The parts were performed consecutively over 14 test days.
Challenge testing was accomplished using a mixed bacterial inoculum as the contamination event. These bacteria are Pseudomonas aeruginosa (ATCC #10145), Escherichia coli (ATCC #11229), Enterobacter aerogenes (ATCC #13048), and Alcaligenes faecalis (ATCC #25094). To prepare the test inoculum, each type of bacteria was harvested separately in nutrient broth. Just before use in the challenge test, equal strengths of each bacterial culture were mixed to obtain an inoculum of approximately 10^8 colony forming units per milliliter (cfu/mL).
After incubation, both control blanks and samples containing preservatives of interest were inoculated with the mixed inoculum to a final of 1.0 weight %. […]
Performance ratings of 0, 1, 2, 3 or 4 for each inoculated paint sample were determined by visual inspection of the streak lines, according to the definitions set forth below in Table 25.

[8] = system: Escherichia coli; assay: Minimum Inhibitory Concentration (MIC) by spiral plater / spiral gradient endpoint against Escherichia coli; type: cell-based; settings: MIC of zinc gluconate alone for Escherichia coli (average of Trials 7, 8), used for SI
Experimental: as §1, §2
The spiral plater automatically applied 54.3 micro-liters of each antimicrobial composition of interest to the surface of 150 millimeter malt agar plates using an exponential application gradient. The concentration of the antimicrobial concentration was greatest near the center of the Petri plates and decreased toward the edges. […]
as §6
Utilizing the experimental procedure described above in Example 1, the MIC against Escherichia coli of several antibacterial compositions containing zinc gluconate, BIT, or both in water were determined.

[9] = system: Staphylococcus aureus; assay: Minimum Inhibitory Concentration (MIC) by spiral plater / spiral gradient endpoint against Staphylococcus aureus; type: cell-based
[10] = aqueous calcium gluconate-BIT compositions, MassCG:MassBIT: Trials 1,2 0:1
[11] = aqueous calcium glycerate-BIT compositions, MassCGLY:MassBIT: Trials 1,2 0:1
[12] = zinc glycerate (without BIT), zinc glycerate-BIT series

In the case of `CC(=O)[O-].CC(=O)[O-].[Zn+2]` [Zinc acetate], the “Observation (viscosity of conventional acrylic paint)” value (“Observation” for short) [1] is reported as “Paint gelled after mixing for” and the “Observation” value ([1]; listed as zinc acetate) is reported as “caused the paint to gel”.

For `[Cl-].[Cl-].[Zn+2]` [Zinc chloride], the “Observation” value [1] was “Paint gelled immediately” and the “Observation” value ([1]; listed as zinc chloride) was “caused the paint to gel”.

With `O=C[O-].O=C[O-].[Zn+2]` [Zinc formate] the “Observation” value [1] was “Paint gelled immediately” and the “Observation” value ([1]; listed as zinc formate) was “caused the paint to gel”.

In the case of calcium ethylhexanoate, the QA ([2]; quantity of calcium ethylhexanoate used alone that gives the desired effect (average of two trials), Alternaria alternata) is reported as 7.5 ppm and the QA [3] is reported as 7.5 ppm.

With calcium gluconate the “MIC (ppm) for Saccharomyces cervisiae” value [4] was greater than 768 ppm, the “MIC (ppm) for Pseudomonas aeruginosa” value [5, 10] was greater than 1127 ppm and the “MIC (ppm) for Pseudomonas aeruginosa” value ([5]; aqueous zinc gluconate-BIT compositions, MassZG:MassBIT: Trials 1,2 0:1) was greater than 2300 ppm. The “MIC (ppm) for Candida albicans” value [6, 10] was greater than 768 ppm.

In the case of calcium glycerate, the “MIC (ppm) for Pseudomonas aeruginosa” value [5, 11] is reported as greater than 1230 ppm, the “MIC (ppm) for Candida albicans” value [6, 11] is reported as greater than 768 ppm and the “MIC (ppm) for Alternaria alternata” value ([2]; aqueous calcium glycerate-BIT compositions, MassCGLY:MassBIT: Trials 1,2 0:1, 3 1:3, 4,5 1:1, 6 3:1, 7,8 1:0) is reported as greater than 788 ppm.

In the case of zinc ethylhexanoate, the QA ([6]; MIC of zinc ethylhexanoate alone for Candida albicans) is reported as greater than 780 ppm, the QA ([2]; MIC of zinc ethylhexanoate alone for Alternaria alternata, used for SI) is reported as greater than 780 ppm and the “amount required to prevent growth of Alternaria alternata (MIC)” value ([2]; zinc ethylhexanoate (without BIT), average of two trials) is reported as greater than 780 ppm.

For zinc gluconate, the “Performance Ratings Week 1, 1 Day” value ([7]; 5000 ppm in acrylic latex paint, Week 1, 1 Day after inoculation) was 4, the “Performance Ratings Week 1, 2 Days” value ([7]; 5000 ppm in acrylic latex paint, Week 1, 2 Days after inoculation) was 4 and the “Performance Ratings Week 1, 8 Days” value ([7]; 5000 ppm in acrylic latex paint, Week 1, 8 Days after inoculation) was 4. The “Performance Ratings Week 2, 1 Day” value ([7]; 5000 ppm in acrylic latex paint, Week 2, 1 Day after inoculation) was 4, the “Performance Ratings Week 2, 2 Days” value ([7]; 5000 ppm in acrylic latex paint, Week 2, 2 Days after inoculation) was 4 and the “Performance Ratings Week 2, 8 Days” value ([7]; 5000 ppm in acrylic latex paint, Week 2, 8 Days after inoculation) was 4. For the same compound, the bacterial stability test ([7]; conventional latex paint with 5000 ppm of zinc gluconate added, mixed inoculum, two 7-day cycles) was “fails” and the QA [8] was 565 ppm.

With zinc glycerate the QA ([6]; MIC of zinc glycerate alone for Candida albicans) was greater than 768 ppm, the “MIC for Candida albicans” value ([6]; metal carboxylate without BIT, zinc ethylhexanoate-BIT series (Example 16, Table 31)) was greater than 780 ppm and the “MIC for Candida albicans” value [6, 12] was greater than 768 ppm. For the same compound, the QA ([2]; MIC of zinc glycerate alone for Alternaria alternata, used for SI) was greater than 788 ppm, the “MIC for Alternaria alternata” value [2, 12] was greater than 768 ppm and the QA ([9]; MIC of zinc glycerate alone for Staphylococcus aureus, used for SI) was greater than 1283 ppm. For the same compound, the “MIC for Staphylococcus aureus” value [9, 12] was greater than 768 ppm.
